According to patent US20080194529A1 (AUSPEX PHARMACEUTICALS, INC., priority 2007, published 2008):

Experiments:
[1] = cited from earlier work
[2] = assay type: in vitro ADME; details: topical or ocular, 5 microgram per mL
Description: Liver microsomal stability assays were conducted at 1 mg per mL liver microsome protein with an NADPH-generating system in 2% NaHCO3 (2.2 mM NADPH, 25.6 mM glucose 6-phosphate, 6 units per mL glucose 6-phosphate dehydrogenase and 3.3 mM MgCl2). Test compounds were prepared as solutions in 20% acetonitrile-water and added to the assay mixture (final assay concentration 5 microgram per mL) and incubated at 37° C. Final concentration of acetonitrile in the assay were <1%. Aliquots (50 μL) were taken out at times 0, 15, 30, 45, and 60 minutes, and diluted with ice cold acetonitrile (200 μL) to stop the reactions. Samples were centrifuged at 12000 RPM for 10 minutes to precipitate proteins. Supernatants were transferred to microcentrifuge tubes and stored for LC/MS/MS analysis of the degradation half-life of the test compounds.

Compound	side effects of chromatopsia, such as sensitivity to light and blurred vision, in patients taking the drug [1]	increase in the degradation half-life as compared to the non-isotopically enriched drug (udenafil) [2]
CN1CC(=O)N2[C@H](c3ccc4c(c3)OCO4)c3[nH]c4ccccc4c3C[C@@H]2C1=O [tadalafil]	< 0.1%	–
[2H]C([2H])(CC)c1nn(C)c2c(=O)[nH]c(-c3cc(S(=O)(=O)NCCC4CCCN4C)ccc3OCCC)nc12 (stereo not drawn) [Example 5, d2-3-(1-Methyl-7-oxo-3-propyl-6,7-dihydro-1H-pyrazolo[4,3-d]pyrimidin-5-yl)-N-[2-(1-methyl-pyrrolidin-2-yl)-ethyl]-4-propoxy-benzenesulfonamide]	–	12-15%
[2H]C([2H])(CC)c1nn(C([2H])([2H])[2H])c2c(=O)[nH]c(-c3cc(S(=O)(=O)NCCC4CCCN4C)ccc3OCCC)nc12 (stereo not drawn) [Example 4, d5-3-(1-Methyl-7-oxo-3-propyl-6,7-dihydro-1H-pyrazolo[4,3-d]pyrimidin-5-yl)-N-[2-(1-methyl-pyrrolidin-2-yl)-ethyl]-4-propoxy-benzenesulfonamide]	–	12-15%
